These results are taken from patent US20260347310A1, “PHENALKYLAMINES AND METHODS OF MAKING AND USING THE SAME” (GILGAMESH PHARMACEUTICALS, INC., priority 2022, published 2026).

Where two headings read alike, the source gives them in different places. Bounds are passed on as bounds.

For orientation: bioavailability means dose-corrected exposure relative to a reference, in per cent. Usually Cmax stands for the highest concentration seen after dosing. For orientation: EC50 means the concentration that produces a half-maximal response. Read a low EC50 as greater potency. What is called microsomal CLint is the capacity of the preparation to metabolise the compound, expressed as a volume cleared per time. Usually Ki stands for the dissociation constant of the complex between target and ligand, obtained from inhibition or displacement.

Series [1] is described as follows: Pharmacokinetics in plasma of rats after oral and intravenous dosing; oral bioavailability. The format is in vivo, Sprague Dawley rats. Conditions: rat plasma, racemate, 10% captisol. The method, then:
The pharmacokinetics of disclosed compounds were determined in the plasma of rats after oral and intravenous dosing, with the results presented in Table 13.
Animals. Male Sprague Dawley rats were used in these studies. Animals were randomly assigned to treatment groups and were fasted overnight before oral dosing.
Drugs. The test compound was dissolved in 10% captisol (1) or 10% DMSO and 90% normal saline (2a) and administered intravenously (iv) at 2 mg/kg (1) or 1 mg/kg (2a) or orally (po) at 10 mg/kg (1) or 1 mg/kg (2a), calculated based on freebase, and at a volume of 10 mL/kg body weight for oral administration and 5 mL/kg for IV administration. The compounds were tested as the racemates.
Sample Collection and Bioanalysis. Blood samples were collected through the external jugular vein (via cannulation) at 0.083, 0.25, 0.5, 1, 2, 4, 8, and 24 h post-dose (total 8 time points/rat, 4 rats per administration route). At each time point, ~0.2 mL of blood was withdrawn and transferred into a pre-labeled 0.5-mL micro centrifuge tube containing 4 μL of 200 mM K2EDTA solution as anticoagulant and mixed gently by inverting the tube to facilitate mixing of anticoagulant with the blood. Blood samples were kept on ice until centrifugation. The collected blood samples were centrifuged at 4,000 rpm for 10 min at 4° C. Plasma samples were separated after centrifugation, transferred into pre-labeled tubes, and stored at −70° C. until bioanalysis. For bioanalysis, a 200-μL aliquot of internal standard prepared in acetonitrile (cetirizine, 50 ng/mL) was added (except for blank, where 200 μL of acetonitrile was added) to a 96-well Solvinert filter plate followed by 5 μL of a study plasma sample or spiked calibration standard. The filter plate was then centrifuged for 5 minutes at a speed of 2,500 rpm at 4° C. with a 96-well sample collection plate. Following centrifugation, collected samples were analyzed using a fit-for-purpose LC-MS/MS method, with authentic samples of the analyte used for calibration and identification.
Data Analysis. Pharmacokinetic parameters were estimated using the non-compartmental analysis tool of Phoenix® WinNonlin software (Ver 8.1). The drug concentrations of samples below the lower limit of quantitation (LLOQ) were designated as zero.

Series [2] addresses T1, 5-HT2A receptor (Homo sapiens, UniProt P28223). Nature of the series: FLIPR Ca2+ flux functional agonist assay at 5-HT2A. More on the design: expressed in transfected cells; host or cells: HEK293. The format is cell-based. The method, then:
Disclosed compounds were tested for agonist activity at several serotonin receptor subtypes (5-HT2A, […], and 5-HT2C) using Ca^2+ flux functional assays, with the results summarized in Table 9.
(§1) Test Compounds. Compounds were prepared as described above.
Functional Assays at 5-HT2A and 5-HT2B. Agonist activity at 5-HT2A and 5-HT2B receptors was determined using a FLIPR Ca^2+ flux assay at WuXi AppTec (Hong Kong) Limited according to their standard protocols. Briefly, stably transfected cells expressing the receptor of interest (HEK293 for both 5-HT2A and 5-HT2B) were grown and plated in a 384-well plate and incubated at 37° C. and 5% CO2 overnight. A solution of 250 mM probenecid in 1 mL FLIPR assay buffer was prepared fresh. This was combined with a fluorescent dye (Fluo-4 Direct™) to make a final assay concentration of 2.5 mM. Compounds were diluted 1:3.16 for 10 points and 750 nL was added to a 384 well compound plate using ECHO along with 30 μL assay buffer. The fluorescent dye was then added to the assay plate along with assay buffer to a final volume of 40 μL. The cell plate was incubated for 50 min at 37° C. and 5% CO2 and placed into the FLIPR Tetra along with the compound plate. 10 μL of references and compounds were then transferred from the compound plate into the cell plate and the fluorescent signal was read.
A general note: A change in cytosolic calcium serves as a functional read-out for many receptors and channels.

A short description of series [3]: Metabolic stability in human liver microsomes (HLM). The format is in vitro ADME. Conditions: for stability in HLM (in words): 1 μM, 0.50 mg protein/mL, 1 mM NADPH, 37 °C, 60 min; for half-life at 1 µM / microsomal CLint at 1 µM: human liver microsomes 0.50 mg/mL, NADPH 1 mM, test compound 1 μM, 37° C., pH 7.4, 60 min. The method, then: as §1
(§2) HLM Stability. Pooled HLM from adult male and female donors (Corning 452117) were used. Microsomal incubations were carried out in multi-well plates. Liver microsomal incubation medium consisted of PBS (100 mM, pH 7.4), MgCl2 (1 mM), and NADPH (1 mM), with 0.50 mg of liver microsomal protein per mL. Control incubations were performed by replacing the NADPH-cofactor system with PBS. Test compounds (1 μM, final solvent concentration 1.0%) were incubated with microsomes at 37° C. with constant shaking. Six time points over 60 minutes were analyzed, with 60 μL aliquots of the reaction mixture being drawn at each time point. The reaction aliquots were stopped by adding 180 μL of cold (4° C.) acetonitrile containing 200 ng/mL tolbutamide and 200 ng/mL labetalol as internal standards (IS), followed by shaking for 10 minutes, and then protein sedimentation by centrifugation at 4,000 rpm for 20 minutes at 4° C. Supernatant samples (80 μL) were diluted with water (240 μL) and analyzed for parent compound remaining using a fit-for-purpose liquid chromatography-tandem mass spectrometry (LC-MS/MS) method.
(§3) Data Analysis. The elimination constant (kel), half-life (t1/2), and intrinsic clearance (CLint) were determined in a plot of […] versus time, using linear regression analysis.

Series [4] has as its target T1, 5-HT2A receptor. Nature of the series: Radioligand binding at 5-HT2A ([3H]ketanserin). Also on record: expressed in transfected cells. The method, then:
The binding affinities of disclosed compounds at the ketanserin binding site of the 5-HT2A receptor, the LSD binding site of the 5-HT2B receptor, and the mesulergine binding site of the 5-HT2C receptor were determined in radioligand binding experiments.
Method. The affinity of the test compounds for 5-HT2A, 5-HT2B, and 5-HT2C receptors was determined in radioligand binding experiments with [^3H]ketanserin, [^3H]LSD, and [^3H]mesulergine, respectively, by WuXi AppTec (Hong Kong) Limited, using methods adapted from the literature and under conditions described in Table 7.

The nature of series [5]: Metabolic stability in dog liver microsomes (DLM). The format is in vitro ADME, Beagle dogs. Conditions: for stability in DLM (in words): 1 μM, 0.50 mg protein/mL, 1 mM NADPH, 37 °C, 60 min; for half-life at 1 µM / microsomal CLint at 1 µM: dog liver microsomes 0.50 mg/mL, NADPH 1 mM, test compound 1 μM, 37° C., pH 7.4, 60 min. The method, then:
as §1
as §2, with “DLM” for “HLM”, “Beagle dogs (Xenotech D1000)” for “and female donors (Corning 452117)”
as §3
A general note: Liver microsomes are vesicles of endoplasmic reticulum, rich in cytochrome P450 enzymes.

T1 sequence (P28223 whole entry): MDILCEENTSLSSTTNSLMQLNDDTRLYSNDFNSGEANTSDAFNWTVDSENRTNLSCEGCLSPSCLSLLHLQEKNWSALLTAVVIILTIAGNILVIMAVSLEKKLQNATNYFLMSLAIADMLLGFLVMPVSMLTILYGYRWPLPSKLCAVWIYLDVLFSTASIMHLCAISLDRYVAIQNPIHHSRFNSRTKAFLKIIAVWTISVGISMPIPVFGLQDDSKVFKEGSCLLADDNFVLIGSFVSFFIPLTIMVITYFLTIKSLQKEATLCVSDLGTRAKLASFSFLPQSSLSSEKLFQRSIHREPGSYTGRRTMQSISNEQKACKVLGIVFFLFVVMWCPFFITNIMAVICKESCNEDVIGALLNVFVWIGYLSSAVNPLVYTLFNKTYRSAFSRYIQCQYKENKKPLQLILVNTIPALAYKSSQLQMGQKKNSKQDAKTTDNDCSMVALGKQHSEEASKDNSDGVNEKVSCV

For the molecule `CCCCCCc1cc(OC)c(CC(N)CC)cc1OC` (racemic) [Compound 1, 1-(4-hexyl-2,5-dimethoxyphenyl)butan-2-amine], in series [1] (IV 2 mg/kg and PO 10 mg/kg, read-out: F (absolute oral bioavailability)), the bioavailability came to 8%. The same molecule gave a C0 in series [1] (IV 2 mg/kg) of 389 ng/mL. In addition, the AUC(0-t) in series [1] (IV 2 mg/kg, read-out: AUC0-last (iv)) stood at 354 ng·h/mL; in series [1] (PO 10 mg/kg, fasted, read-out: AUC0-last (po)), 138 ng·h/mL. Besides, the half-life in series [1] (IV 2 mg/kg, read-out: t1/2 (iv) (converted)) was 2.16 h; in series [1] (PO 10 mg/kg, fasted, read-out: t1/2 (po) (converted)), 2.63 h. The molecule further displayed a Cmax in series [1] (PO 10 mg/kg, fasted) of 35.1 ng/mL.
For the molecule `CCC(N)Cc1cc(OC)c(CCCCC(C)(F)F)cc1OC` (stereo not drawn) [Compound 2b, 1-(4-(5,5-difluorohexyl)-2,5-dimethoxyphenyl)butan-2-amine], it took 5060 nM to reach a half-maximal effect on 5-HT2A receptor [2] (EC50). Moreover, the “agonist activity at 5-HT2A (in words)” value on 5-HT2A receptor [2] (Ca2+ flux, potency or efficacy) is “substantially less potent than 1R and 1S in the 5-HT2A FLIPR assay”. Also, the Emax at 5-HT2A receptor [2] (HEK293, read-out: 5-HT2A % Act @ Max Dose) came to 71.3%. Besides, in series [3], the “stability in HLM (in words)” value was “significantly higher stability compared to 1R and 1S”; the half-life at 1 µM was more than 2.42 h; the microsomal CLint at 1 µM was less than 9.6 µL/min/mg. Further, the Ki on 5-HT2A receptor [4] is 9.52 nM. In addition, the “binding at 5-HT2A receptors (in words)” value at 5-HT2A receptor [4] ([3H]ketanserin) is reported as “potent ligands for 5-HT2A”. In addition, in series [5], the “stability in DLM (in words)” value was “significantly higher stability compared to 1R and 1S”; the half-life at 1 µM amounted to 1.19 h; the microsomal CLint at 1 µM was found to be 19.4 µL/min/mg.
For `[2H]C([2H])([2H])CCCCCc1cc(OC)c(CC(N)CC)cc1OC` (stereo not drawn) [Compound 3a, 1-(4-(hexyl-6,6,6-d3)-2,5-dimethoxyphenyl)butan-2-amine], in series [3], the “stability in HLM (in words)” value is on record as “intermediate stability”, the half-life at 1 µM stood at 0.517 h and the microsomal CLint at 1 µM turned out to be 44.7 µL/min/mg. Besides, in series [5], the “stability in DLM (in words)” value is “modestly greater stability than 1R or 1S”, the half-life at 1 µM was determined as 0.557 h and the microsomal CLint at 1 µM is 41.5 µL/min/mg.
